Reference: patent US20230357189A1, “MODIFIED FLUOROQUINOLONES AND USES THEREOF” (Technion Research & Development Foundation Limited, priority 2021, published 2023)
≈ marks a conversion by molar mass, not a printed value.

Assays:
Bacillus Subtilis = experiment: Antibacterial activity, MIC by double-microdilution method; format: cell-based; conditions: Bacillus Subtilis; for Gram-positive MIC d: Table 2; for Gram-positive MIC, DTT 0 mM / Gram-positive MIC, DTT 2 mM / Gram-positive MIC, DTT 10 mM: Table 3
Escherichia coli 25922 = experiment: as above; format: cell-based; conditions: Table 2; Escherichia coli 25922
[1] = test system: Staphylococcus Epidermidis; experiment: as above; format: cell-based; conditions: Table 2
[2] = test system: Escherichia coli R477-100; experiment: as above; format: cell-based; conditions: for Gram-negative MIC a: Table 2, without DTT; for Gram-negative MIC a / Gram-negative MIC, DTT 10 mM / Gram-negative MIC, DTT 0 mM / Gram-negative MIC, DTT 2 mM: Escherichia coli R477-100; for improvement of MIC in the presence of DTT: 10 mM DTT vs without DTT, Gram-negative E. coli R477-100; for Gram-negative MIC, DTT 0 mM / Gram-negative MIC, DTT 2 mM: Table 3
[3] = test system: supercoiled (+) pHOT-1 plasmid DNA; experiment: DNA cleavage assay (gel electrophoresis); format: biochemical; conditions: for DNase activity (cleavage of supercoiled plasmid, form I to form II): absence of adjuvants, HEPES buffer (50 mM, pH 7.4), 5 hours
Experimental: Removal of Ligands Prior to Electrophoresis was performed when more than 100 μM of Cu(II)-ligand or Co(III) ligand (at any concentration) complexes were employed that is, for DNA cleavage assays that were performed in the absence of any adjuvants. An Amberlyst® 15 (Sigma Aldrich) ion-exchange resin was prepared according to the reported literature [Hettich et al. J. Am. Chem. Soc. 1997, 119 (24), 5638-5647] and stored at −20° C. Before use, 0.5 gram of the exchanger was mixed with 250 μL of water. After stopping the DNA-cleavage reaction by addition of EDTA (54 mM, 15 minutes incubation at 37° C.), 10 μL of the exchanger suspension was added, vortexed, and incubated at 37° C. for 15 minutes before centrifugation and electrophoresis.
DNA cleavage activity of the tested Complexes towards supercoiled (+) pHOT-1 plasmid DNA (TopoGEN) was monitored by gel electrophoresis. In a typical experiment, plasmid DNA (200 ng, […]) in HEPES buffer (50 mM, pH 7.4) was mixed with different concentrations of a tested metal complex in the presence or absence of ascorbic acid (0.32 mM). All stock solutions of buffers and of the metal complexes were prepared using HPLC grade water (ChromAR®). Molecular biology reagent grade water (Sigma) was added up to a total reaction volume of 30 μL before incubation for a given time. For the ascorbic acid assays, the reaction was quenched immediately after incubation with EDTA (54 mM). For analysis, 10 μL of loading buffer (40% sucrose, 100 mM Tris-HCl (pH 7.5), 1 mM EDTA, 0.5 mg·mL^−1 bromophenol blue) was added to the incubated solution and loaded onto an agarose (SeaKem LE) gel [1% in TAE×1 buffer (40 mM Tris, 20 mM acetic acid, 1 mM EDTA)]. Electrophoresis was carried out at 60 V for 2 hours. Gels were stained with 1 μg·mL^−1 ethidium bromide for 30 minutes and de-stained in TAE×1 buffer. DNA bands were visualized with medium-range ultraviolet light using Bio-Rad Gel Doc XR+ imaging system. The quantity of different DNA forms (I or II) was estimated using ImageJ software.
Chem. 2015, 2015 (28), 4722-4730; Kashiba-Iwatsuki et al. FEBS Lett. 1996, 389 (2), 149-15].
The copper complex of compound 2 (2-Cu(II)) was used as the positive control in these assays.

E. coli DNA gyrase = target: T1, E. coli DNA gyrase (Escherichia coli, UniProt P0AES4+P0AES6); experiment: E. coli Gyrase-DNA supercoiling assay; format: biochemical; conditions: supercoiling of relaxed pHOT-1 plasmid in presence of ATP; 37° C., 60 minutes
T1 construct: purchased TopoGEN
T1 sequence (P0AES4 whole entry, one chain of several): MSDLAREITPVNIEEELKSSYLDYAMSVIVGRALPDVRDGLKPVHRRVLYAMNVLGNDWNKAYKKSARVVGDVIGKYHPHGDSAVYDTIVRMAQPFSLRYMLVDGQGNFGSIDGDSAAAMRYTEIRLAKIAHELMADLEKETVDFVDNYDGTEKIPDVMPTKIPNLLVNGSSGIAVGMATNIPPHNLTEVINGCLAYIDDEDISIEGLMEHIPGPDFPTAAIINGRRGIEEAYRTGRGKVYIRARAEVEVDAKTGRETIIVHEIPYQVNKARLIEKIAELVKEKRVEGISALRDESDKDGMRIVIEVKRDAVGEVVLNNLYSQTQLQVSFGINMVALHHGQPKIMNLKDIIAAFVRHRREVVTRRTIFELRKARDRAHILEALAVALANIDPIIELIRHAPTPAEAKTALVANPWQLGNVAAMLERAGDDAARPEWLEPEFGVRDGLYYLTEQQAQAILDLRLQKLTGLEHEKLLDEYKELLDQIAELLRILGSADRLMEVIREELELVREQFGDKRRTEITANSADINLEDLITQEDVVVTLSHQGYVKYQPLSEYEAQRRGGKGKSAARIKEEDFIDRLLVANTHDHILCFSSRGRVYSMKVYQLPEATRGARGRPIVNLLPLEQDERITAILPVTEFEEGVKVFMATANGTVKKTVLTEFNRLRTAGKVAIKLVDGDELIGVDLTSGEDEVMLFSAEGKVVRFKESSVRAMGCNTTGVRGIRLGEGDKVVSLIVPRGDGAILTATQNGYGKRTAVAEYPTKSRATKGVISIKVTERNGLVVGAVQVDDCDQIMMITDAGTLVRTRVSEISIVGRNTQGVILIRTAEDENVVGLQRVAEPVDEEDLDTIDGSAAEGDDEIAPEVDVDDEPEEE
Experimental: The DNA supercoiling reactions were based on the manufacturer protocol (TopoGEN). The amount of DNA gyrase used in each assay was optimized by testing various dilutions of the stock. The amount sufficient to supercoil 250 nanograms (ng) of the substrate in 1 hour at 37° C. was then used for testing the compounds (1.1 U as defined by manufacturer). Assays (30 μL) contained 250 nanograms of relaxed pHOT1 plasmid DNA in Tris-HCl buffer (35 mM), pH 7.5, containing KCl (24 mM), MgCl2 (4 mM), DTT (2 mM), Spermidine (1.8 mM), ATP (1 mM), 6.5% (w/v) glycerol and bovine serum albumin (0.1 mg/ml). Reactions were incubated at 37° C. for 60 minutes. Reaction mixtures were stopped by the addition of 30 μL of loading buffer (40% sucrose, 100 mM Tris·HCl (pH 7.5), 1 mM EDTA, 0.5 mg×mL^−1 bromophenol blue) and worked up using 30 μL of 24:1 chloroform/isoamyl alcohol mixture; the aqueous layer was then analyzed using electrophoresis.
Electrophoresis, gel staining, DNA visualization and DNA quantification were performed as described for the DNA cleavage assays.

| Compound | Gram-positive MIC d (Bacillus Subtilis) [µg/mL] | Gram-negative MIC b (Escherichia coli 25922) [µg/mL] | Gram-positive MIC c [1] [µg/mL] | Gram-negative MIC a [2] [µg/mL] | DNase activity (cleavage of supercoiled plasmid, form I to form II) [3] | DNase activity at micromolar concentrations ([3]; FIG. 32: 0.2 μg DNA over 2 hours (Co(III)-cyclen, 4-Co(III)), 0.6 μg DNA over 10 hours (23-Co(III))) | IC50 (E. coli DNA gyrase) [nM] | Gram-positive MIC, DTT 0 mM (Bacillus Subtilis) [µg/mL] | Gram-positive MIC, DTT 2 mM (Bacillus Subtilis) [µg/mL] | Gram-positive MIC, DTT 10 mM (Bacillus Subtilis) [µg/mL] | improvement of MIC in the presence of DTT [2] | Gram-negative MIC, DTT 10 mM [2] [µg/mL] | Gram-negative MIC, DTT 0 mM [2] [µg/mL] | Gram-negative MIC, DTT 2 mM [2] [µg/mL] | MIC ([2]; E. coli R477-100, metal-free compound) [µg/mL] |
| --- | --- | --- | --- | --- | --- | --- | --- | --- | --- | --- | --- | --- | --- | --- | --- |
| O.O=C(O)c1cn(C2CC2)c2cc(N3CCN(CCCCCCN4CCNCCNCCNCC4)CC3)c(F)cc2c1=O.[Co+3].[OH-] [1-Co(III)] | 12 | 12 | 24 | 12 |  |  |  |  |  |  |  |  |  |  |  |
| O.O=C(O)c1cn(C2CC2)c2cc(N3CCN(CCCCCCCN4CCNCCNCCNCC4)CC3)c(F)cc2c1=O.[Co+3].[OH-] [2-Co(III)] | 12 to 24 | 6 | 24 | 12 |  |  |  |  |  |  |  |  |  |  |  |
| O.O=C(O)c1cn(C2CC2)c2cc(N3CCN(CCCCCCCCN4CCNCCNCCNCC4)CC3)c(F)cc2c1=O.[Co+3].[OH-] [3-Co(III)] | 12 | 6 | 12 to 24 | 12 |  |  |  |  |  |  |  |  |  |  |  |
| O.O=C(O)c1cn(C2CC2)c2cc(N3CCN(CCCCCCCCN4CCNCCNCCNCC4)CC3)c(F)cc2c1=O.[Cu+2] [3-Cu(II)] | 6 | 6 | 6 | 12 | only very limited activity |  |  |  |  |  |  |  |  |  |  |
| O.O=C(O)c1cn(C2CC2)c2cc(N3CCN(Cc4ccc(CN5CCNCCNCCNCC5)cc4)CC3)c(F)cc2c1=O.[Co+3].[OH-] [4-Co(III)] | 6 | 6 | 6 | 12 |  | strong DNA binding but no DNase activity |  |  |  |  |  |  |  |  |  |
| O.O=C(O)c1cn(C2CC2)c2cc(N3CCN(Cc4ccc(CCCN5CCNCCNCCNCC5)cc4)CC3)c(F)cc2c1=O.[Cu+2] [6-Cu(II)] | 6 | 3 | 3 | 6 | only very limited activity |  | 90 ± 10 |  |  |  |  |  |  |  |  |
| NCCN1CCNCCNCCN(Cc2ccc(CN3CCN(c4cc5c(cc4F)c(=O)c(C(=O)[O-])cn5C4CC4)CC3)cc2)CC1.[Cu+2] [23-Cu(II)] | 12 | 24 | 12 | 24 | significant hydrolytic DNase activity |  |  | 12 | 6 | 3 | significant improvement in antibacterial activity | 3 | 24 | 6 |  |
| O=C(O)c1cn(C2CC2)c2cc(N3CCN(CCCCCCCCN4CCNCCNCCNCC4)CC3)c(F)cc2c1=O [Compound 3] | 6 | 12 | 6 | 24 to 48 |  |  |  |  |  |  |  |  |  |  |  |
| N=C(N)NCCN1CCNCCNCCN(Cc2ccc(CN3CCN(c4cc5c(cc4F)c(=O)c(C(=O)O)cn5C4CC4)CC3)cc2)CC1 [Compound 19] | 6 | 12 | 6 | 12 | significant DNase activity |  |  | 6 | 6 to 12 | 6 |  | 12 | 12 | 12 |  |
| N=C(N)NCCN1CCNCCNCCN(CCc2ccc(CN3CCN(c4cc5c(cc4F)c(=O)c(C(=O)O)cn5C4CC4)CC3)cc2)CC1 [Compound 20] | 12 | 24 | 24 | 24 |  |  |  | 12 | 6 to 12 | 12 |  | 24 | 24 | 12 |  |
| N=C(N)NCCN1CCNCCNCCN(CCCc2ccc(CN3CCN(c4cc5c(cc4F)c(=O)c(C(=O)O)cn5C4CC4)CC3)cc2)CC1 [Compound 21] | 6 | 12 | 6 | 12 |  |  |  | 12 | 12 | 6 |  | 6 | 12 | 6 |  |
| NCCN1CCNCCNCCN(Cc2ccc(CN3CCN(c4cc5c(cc4F)c(=O)c(C(=O)O)cn5C4CC4)CC3)cc2)CC1 [Compound 23] | 6 | 24 | 12 | 24 | significant DNase activity |  |  | 6 | 6 | 3 |  | 12 | 24 | 12 | 24 (≈ 37 µM) |
| NCCN1CCNCCNCCN(CCCCc2ccc(CN3CCN(c4cc5c(cc4F)c(=O)c(C(=O)O)cn5C4CC4)CC3)cc2)CC1 [Compound 26] | 6 | 12 | 6 | 12 |  |  |  | 6 | 6 | 6 |  | 12 | 12 | 6 |  |
| [Cl][Cu][Cl] [CuCl2, reference compound] | >384 | >384 | >384 | >384 |  |  |  |  |  |  | no change whatsoever |  |  |  |  |
